Article PMC6013791 (Chemical Science, 2016)
Where a SMILES comes first, the peptide text is derived from it. Bridges are numbered along the chain shown (N, C = ends). [ ]: non-standard residue; d: D form. hArg = N=C(N)NCCCC[C@H](N)C(=O)O; Mpa = O=C(O)CCS

How the values were obtained:
[1] = target: T1, CXCR4 (Homo sapiens, UniProt P61073); assay: Ligand efficiency from ChEMBL19 CXCR4 ligand data; conditions: LE = 1.4pAffinity/nheavy_atoms, from ChEMBL19 CXCR4 data ref 28
[2] = target: T1, CXCR4; conditions: cited from earlier work
[3] = target: T1, CXCR4; assay: CXCR4 arrestin assay; format: cell-based; conditions: 30 μM, exploitive and hit expansion iterations

T1 sequence (P61073 whole entry): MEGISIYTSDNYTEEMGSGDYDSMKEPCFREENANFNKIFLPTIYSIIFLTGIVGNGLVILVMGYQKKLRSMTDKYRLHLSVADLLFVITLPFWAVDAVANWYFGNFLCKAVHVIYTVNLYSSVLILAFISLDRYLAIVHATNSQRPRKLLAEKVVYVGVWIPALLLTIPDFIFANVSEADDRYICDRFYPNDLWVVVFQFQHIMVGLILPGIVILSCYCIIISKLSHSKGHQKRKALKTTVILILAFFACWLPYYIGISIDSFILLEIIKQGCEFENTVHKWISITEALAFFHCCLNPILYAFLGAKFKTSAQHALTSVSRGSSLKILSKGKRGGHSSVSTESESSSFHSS

Structure (SMILES)	ligand efficiency (LE) [1]	other results
c1cc2nc(c1)CCNCCN(Cc1ccc(CN3CCNCCc4cccc(n4)CCNCC3)cc1)CCNCC2 [CHEMBL1202231]	0.32	
c1ccc(NCc2ccc(CNc3ccccn3)cc2)nc1 [ChEMBL237830]	0.56	
C[C@H](NC(=O)[C@H](CCCN=C(N)N)NC(=O)c1ccc(CNCc2ccccn2)cc1)c1cccc2ccccc12 [KRH-1636]		EC50 [2]: 18 nM
N=C(N)NCCCC[C@@H]1NC(=O)CCSSC[C@@H](C(N)=O)NC(=O)[C@@H]2CCCN2C(=O)[C@H](Cc2c[nH]c3ccccc23)NC(=O)[C@H](CC(=O)O)NC(=O)CNC1=O [integrilin] ([Mpa][hArg]GDWPC-NH2; disulfide 1-7 (inferred))		activity in the arrestin assay [3]: lack of activity
